Drawing on patent publication US8236792B2, “Substituted pyrrolidine amides as modulators of the histamine H3 receptor” (Janssen Pharmaceutica NV, priority 2008, dated 2012), this text covers Ki for 31 molecules.

In the assay the target is human H3 receptor (Homo sapiens, UniProt Q9Y5N1). The assay can be described thus: H3 Receptor Binding (Human) Method 2, [125I]-iodoproxyfan competitive radioligand binding. Also noted: expressed in transfected cells. Particulars: read-out: Human H3 Ki.
Chain of human H3 receptor (Q9Y5N1 whole entry): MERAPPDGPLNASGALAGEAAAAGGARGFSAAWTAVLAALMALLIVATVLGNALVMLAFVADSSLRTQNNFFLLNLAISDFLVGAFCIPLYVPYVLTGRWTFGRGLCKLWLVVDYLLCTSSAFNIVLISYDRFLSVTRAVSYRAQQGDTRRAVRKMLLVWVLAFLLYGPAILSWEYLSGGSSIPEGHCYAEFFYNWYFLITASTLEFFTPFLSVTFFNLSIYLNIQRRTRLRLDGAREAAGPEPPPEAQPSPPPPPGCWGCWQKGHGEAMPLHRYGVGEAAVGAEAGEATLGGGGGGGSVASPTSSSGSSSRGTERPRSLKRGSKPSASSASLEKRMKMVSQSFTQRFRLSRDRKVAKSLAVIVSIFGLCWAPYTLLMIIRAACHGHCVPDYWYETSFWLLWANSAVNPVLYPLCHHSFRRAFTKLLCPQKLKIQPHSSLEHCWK
One may read the Ki as a dissociation constant, usually derived from enzyme kinetics or from competition with a known ligand. Take `CC(C)(C)OC(=O)N1C[C@H](Oc2ccccn2)C[C@H]1C(=O)N1CCCN(C2CCC2)CC1` (stereo in doubt) [Example 50, (2S,4R)-2-(4-Cyclobutyl-[1,4]diazepane-1-carbonyl)-4-(pyridin-2-yloxy)-pyrrolidine-1-carboxylic acid tert-butyl ester]: the Ki worked out at 5 nM.
Consider `Cc1cnc(F)cc1O[C@@H]1C[C@@H](C(=O)N2CCCN(C3CCC3)CC2)N(C(=O)OC(C)(C)C)C1` (stereo in doubt) [Example 51, (2S,4R)-2-(4-Cyclobutyl-[1,4]diazepane-1-carbonyl)-4-(2-fluoro-5-methyl-pyridin-4-yloxy)-pyrrolidine-1-carboxylic acid tert-butyl ester], for which the Ki was found to be 2 nM.
As for `CC(C)(C)OC(=O)N1CC[C@H](O)[C@H]1C(=O)N1CCCN(C2CCC2)CC1` [Example 3, (2S,3S)-2-(4-Cyclobutyl-[1,4]diazepane-1-carbonyl)-3-hydroxy-pyrrolidine-1-carboxylic acid tert-butyl Ester], the Ki worked out at 1270 nM.
As for `CC(C)(C)OC(=O)N1C[C@@H](O)C[C@@H]1C(=O)N1CCCN(C2CCC2)CC1` [Example 4, (2R,4S)-2-(4-Cyclobutyl-[1,4]diazepane-1-carbonyl)-4-hydroxy-pyrrolidine-1-carboxylic acid tert-butyl Ester], the figure is 53 nM.
Turning to `CC(C)(C)OC(=O)N1C[C@H](O)C[C@@H]1C(=O)N1CCCN(C2CC2)CC1` [Example 5, (2R,4R)-2-(4-Cyclopropyl-[1,4]diazepane-1-carbonyl)-4-hydroxy-pyrrolidine-1-carboxylic acid tert-butyl Ester], the Ki amounted to 1250 nM.
Then `CC(C)(C)OC(=O)N1C[C@H](O)C[C@@H]1C(=O)N1CCN(C2CCCC2)CC1` [Example 6, (2R,4R)-2-(4-Cyclopentyl-piperazine-1-carbonyl)-4-hydroxy-pyrrolidine-1-carboxylic acid tert-butyl Ester], with 1110 nM; and `CC(C)(C)OC(=O)N1C[C@H](O)C[C@@H]1C(=O)N1CCCN(C2CCCC2)CC1` [Example 7, (2R,4R)-2-(4-Cyclopentyl-[1,4]diazepane-1-carbonyl)-4-hydroxy-pyrrolidine-1-carboxylic acid tert-butyl Ester], with 432 nM; and `CC(C)(C)OC(=O)N1C[C@H](O)C[C@@H]1C(=O)N1CCCN(C2CCC2)CC1` [Example 8, (2R,4R)-2-(4-Cyclobutyl-[1,4]diazepane-1-carbonyl)-4-hydroxy-pyrrolidine-1-carboxylic acid tert-butyl Ester], with 534 nM.
Consider `O=C([C@H]1C[C@@H](O)CN1C(=O)OCc1ccccc1)N1CCCN(C2CCC2)CC1` [Example 9, (2R,4R)-2-(4-Cyclobutyl-[1,4]diazepane-1-carbonyl)-4-hydroxy-pyrrolidine-1-carboxylic Acid Benzyl Ester], for which the Ki is 50 nM.
For `CC(=O)N1C[C@@H](O)C[C@@H]1C(=O)N1CCCN(C2CCC2)CC1` [Example 10, (2R,4S)-1-[2-(4-Cyclobutyl-[1,4]diazepane-1-carbonyl)-4-hydroxy-pyrrolidin-1-yl]-ethanone], the inhibition constant Ki is 115 nM.
For `CC(C)(C)OC(=O)N1C[C@@H](Oc2ccccc2)C[C@H]1C(=O)N1CCCN(C2CCC2)CC1` [Example 14, (2S,4S)-2-(4-Cyclobutyl-[1,4]diazepane-1-carbonyl)-4-phenoxy-pyrrolidine-1-carboxylic acid tert-butyl ester], the Ki is 126 nM.
Consider `CSc1ccc(O[C@H]2C[C@H](C(=O)N3CCCN(C4CCC4)CC3)N(C(=O)OC(C)(C)C)C2)cc1` [Example 23, (2R,4S)-2-(4-Cyclobutyl-[1,4]diazepane-1-carbonyl)-4-(4-methylsulfanyl-phenoxy)-pyrrolidine-1-carboxylic acid tert-butyl ester], for which the Ki came out at 7 nM.
As for `Cc1cc(O[C@H]2C[C@H](C(=O)N3CCCN(C4CCC4)CC3)N(C(=O)OC(C)(C)C)C2)ccc1Cl` [Example 24, (2R,4S)-4-(4-Chloro-3-methyl-phenoxy)-2-(4-cyclobutyl-[1,4]diazepane-1-carbonyl)-pyrrolidine-1-carboxylic acid tert-butyl ester], the figure is 4 nM; as for `CC(C)(C)OC(=O)N1C[C@@H](Oc2ccc(S(C)(=O)=O)cc2)C[C@@H]1C(=O)N1CCCN(C2CCC2)CC1` [Example 25, (2R,4S)-2-(4-Cyclobutyl-[1,4]diazepane-1-carbonyl)-4-(4-methanesulfonyl-phenoxy)-pyrrolidine-1-carboxylic acid tert-butyl ester], 5 nM.
As for `COc1cccc(O[C@H]2C[C@H](C(=O)N3CCCN(C4CCC4)CC3)N(C(=O)OC(C)(C)C)C2)c1` [Example 26, (2R,4S)-2-(4-Cyclobutyl-[1,4]diazepane-1-carbonyl)-4-(3-methoxy-phenoxy)-pyrrolidine-1-carboxylic acid tert-butyl ester], the figure is 12 nM; as for `CC(C)(C)OC(=O)N1C[C@@H](Oc2ccc(C(F)(F)F)cc2)C[C@@H]1C(=O)N1CCCN(C2CCC2)CC1` [Example 28, (2R,4S)-2-(4-Cyclobutyl-[1,4]diazepane-1-carbonyl)-4-(4-trifluoromethyl-phenoxy)-pyrrolidine-1-carboxylic acid tert-butyl ester], 7 nM; as for `Cc1ccc(O[C@H]2C[C@H](C(=O)N3CCCN(C4CCC4)CC3)N(C(=O)OC(C)(C)C)C2)cc1` [Example 29, (2R,4S)-2-(4-Cyclobutyl-[1,4]diazepane-1-carbonyl)-4-p-tolyloxy-pyrrolidine-1-carboxylic acid tert-butyl ester], 8 nM.
Then `Cc1ccccc1O[C@H]1C[C@H](C(=O)N2CCCN(C3CCC3)CC2)N(C(=O)OC(C)(C)C)C1` [Example 30, (2R,4S)-2-(4-Cyclobutyl-[1,4]diazepane-1-carbonyl)-4-o-tolyloxy-pyrrolidine-1-carboxylic acid tert-butyl ester], with 8 nM.
With `CC(C)(C)OC(=O)N1C[C@@H](Oc2ccc(F)cc2)C[C@@H]1C(=O)N1CCCN(C2CC2)CC1` [Example 31, (2R,4S)-2-(4-Cyclopropyl-[1,4]diazepane-1-carbonyl)-4-(4-fluoro-phenoxy)-pyrrolidine-1-carboxylic acid tert-butyl ester], the Ki came to 15 nM.
`CC(C)(C)OC(=O)N1C[C@@H](Oc2ccc(C#N)cc2)C[C@@H]1C(=O)N1CCCN(C2CC2)CC1` [Example 32, (2R,4S)-4-(4-Cyano-phenoxy)-2-(4-cyclopropyl-[1,4]diazepane-1-carbonyl)-pyrrolidine-1-carboxylic acid tert-butyl ester]: the Ki was 10 nM.
For the molecule `CC(C)(C)OC(=O)N1C[C@@H](Oc2ccc(F)cc2)C[C@@H]1C(=O)N1CCN(C2CCCC2)CC1` [Example 33, (2R,4S)-2-(4-Cyclopentyl-piperazine-1-carbonyl)-4-(4-fluoro-phenoxy)-pyrrolidine-1-carboxylic acid tert-butyl ester], the Ki was determined as 24 nM.
For `CC(C)(C)OC(=O)N1C[C@@H](Oc2ccc(C#N)cc2)C[C@@H]1C(=O)N1CCN(C2CCCC2)CC1` [Example 34, (2R,4S)-4-(4-Cyano-phenoxy)-2-(4-cyclopentyl-piperazine-1-carbonyl)-pyrrolidine-1-carboxylic acid tert-butyl ester], the Ki was found to be 14 nM.
As to `CC(C)(C)OC(=O)N1C[C@@H](Oc2ccc(F)cc2)C[C@@H]1C(=O)N1CCCN(C2CCCC2)CC1` [Example 35, (2R,4S)-2-(4-Cyclopentyl-[1,4]diazepane-1-carbonyl)-4-(4-fluoro-phenoxy)-pyrrolidine-1-carboxylic acid tert-butyl ester], the Ki was found to be 2 nM.
As for `CC(C)(C)OC(=O)N1C[C@@H](Oc2ccc(C#N)cc2)C[C@@H]1C(=O)N1CCCN(C2CCCC2)CC1` [Example 36, (2R,4S)-4-(4-Cyano-phenoxy)-2-(4-cyclopentyl-[1,4]diazepane-1-carbonyl)-pyrrolidine-1-carboxylic acid tert-butyl ester], the figure is 3 nM; as for `CN(C)[C@@H]1CCN(C(=O)[C@H]2C[C@H](Oc3cccc(F)c3)CN2C(=O)OC(C)(C)C)C1` [Example 37, (2R,4S)-2-((3R)-3-Dimethylamino-pyrrolidine-1-carbonyl)-4-(3-fluoro-phenoxy)-pyrrolidine-1-carboxylic acid tert-butyl ester], above 10000 nM.
As to `CC(C)(C)OC(=O)N1C[C@@H](Oc2cccc(F)c2)C[C@@H]1C(=O)N1CCC(N2CCCC2)C1` (stereo partly drawn) [Example 39, (2R,4S)-2-([1,3′]Bipyrrolidinyl-1′-carbonyl)-4-(3-fluoro-Phenoxy)-pyrrolidine-1-carboxylic acid tert-butyl ester], the Ki was 43 nM.
Turning to `CN(C)C1CCN(C(=O)[C@H]2C[C@H](Oc3ccc(F)cc3)CN2C(=O)OC(C)(C)C)CC1` [Example 40, (2R,4S)-2-(4-Dimethylamino-piperidine-1-carbonyl)-4-(4-fluoro-phenoxy)-pyrrolidine-1-carboxylic acid tert-butyl ester], the Ki worked out at 1240 nM.
For the molecule `CC(C)(C)OC(=O)N1C[C@H](Oc2ccccc2)C[C@H]1C(=O)N1CCCN(C2CCC2)CC1` [Example 48, (2S,4R)-2-(4-Cyclobutyl-[1,4]diazepane-1-carbonyl)-4-phenoxy-pyrrolidine-1-carboxylic acid tert-butyl ester], the Ki was found to be 14 nM.
As for `CC(C)(C)OC(=O)N1C[C@H](Oc2cccc(F)c2)C[C@H]1C(=O)N1CCCN(C2CCC2)CC1` [Example 49, (2S,4R)-2-(4-Cyclobutyl-[1,4]diazepane-1-carbonyl)-4-(3-fluoro-phenoxy)-pyrrolidine-1-carboxylic acid tert-butyl ester], the figure is 6 nM.
Then `Cc1cnc(O[C@H]2C[C@H](C(=O)N3CCCN(C4CCC4)CC3)N(C(=O)OC(C)(C)C)C2)cc1I` [Example 52, (2R,4S)-2-(4-Cyclobutyl-[1,4]diazepane-1-carbonyl)-4-(4-iodo-5-methyl-pyridin-2-yloxy)-pyrrolidine-1-carboxylic acid tert-butyl ester], with 8 nM; and `CC(C)(C)OC(=O)N1C[C@@H](Oc2cccnc2)C[C@@H]1C(=O)N1CCCN(C2CCC2)CC1` [Example 53, (2R,4S)-2-(4-Cyclobutyl-[1,4]diazepane-1-carbonyl)-4-(pyridin-3-yloxy)-pyrrolidine-1-carboxylic acid tert-butyl ester], with 2 nM.
